# Reference: patent US9181116B2, “Organophosphorus derivatives and use thereof as uncoupling agents” (RHODIA OPERATIONS, priority 2009, dated 2015)
# What was measured:
# [1] = tested on: activated sludge from the urban STEP of St-Fons; assay: Chemostat biological pilot, reduction of activated sludge production (flash mixing); settings: 2.9 ppm, 3 months injection
# Excerpt: Detection of the reduction of activated sludge by an organophosphonium derivative in a Chemostat® biological pilot.
# Tests on biological pilots continuously fed with synthetic effluent dealt with the molecule of Ex2 (Example 2 above), show significant uncoupling effects on the reduction of sludge production. The biological pilots have a volume of 5 liters and are continuously aerated; a purge of the latter is made everyday (except on weekends) in order to obtain a sludge age of about 7 days. The biological pilots were seeded with activated sludge from the urban STEP of St-Fons (France). After a short acclimatization period of the sludge, the treatment with the molecule Ex2 was carried out according to the flash mixing method also described in Example 1 of WO 2004/113236 cited as a reference.
# An experiment, for which the total period of injection of the uncoupling product according to the flash mixing method lasted for 3 months, gave the following results:
# A complementary experiment, this time using two different grades of the compound Ex2 of Example 2 above, designated as EX21 and EX22a hereafter, gave the following results over a 1 month injection period: […]
# strain Schinella granuli = assay: Oxytop respirometry screening test (oxygen overconsumption = uncoupling); assay type: cell-based
# Excerpt: In order to evaluate the reduction in sludge production by an uncoupling chemical agent in respirometry (in order to measure oxygen overconsumption, a characteristic signature of the effects of an uncoupling agent), the oxytop® test technique is used containing a synthetic medium and bacterial strains particularly sensitive to uncoupling agents.
# The method and the apparatus used are those described in Example 3 of WO 2004/113236 cited as a reference. The strain Schinella granuli was used as an inoculum in this methodology (which differs from Example 3 of WO 2004/113236 which used activated sludge).
# They are expressed as an uncoupling percentage relatively to the control (not comprising any uncoupling agent). This means that for Ex2 at 0.05 mg/l, we have an oxygen overconsumption of 18% relatively to the control not comprising any uncoupling agent. THPS (tetrakis(hydromethyl)phosphonium sulfate) produces uncoupling effects in the oxitop® respirometry tests of 16±8% for a rated concentration of 3 ppm, the 95% confidence interval of THPS in terms of uncoupling factor being, values computed from results obtained in 26 Oxitop® tests.
smiles,measurement,setting,value
"O=S(=O)([O-])[O-].OC[P+](CO)(CO)CO.OC[P+](CO)(CO)CO [THPS, tetrakis(hydromethyl)phosphonium sulfate]",Growth rate,[1],0.171 g of MLSS/g of removed COD
same,Reduction in growth rate,[1]; vs untreated control,9.0%
same,Reduction in sludge production,[1]; vs untreated control,13.6%
same,uncoupling percentage relatively to the control (oxygen overconsumption),"strain Schinella granuli; 3 ppm (rated concentration), THPS: average over 26 tests",16±8%
same,95% confidence interval in terms of uncoupling factor,"strain Schinella granuli; 3 ppm, computed from 26 Oxitop tests",10-22
